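Compound exposure: 48 hours, 5 concentrations, 96-well plates. GI50 = concentration required for 50% inhibition of growth.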 The source made the active and inactive calls. No stated cut-off is given here; in the data, active = GI50 up to about 1.1 µM and inactive = higher.
Experiments:
Assay in all cases: NCI anticancer screen, dose series, 48 h
A549 = system: A549
DU-145 = system: DU-145
EKVX = system: EKVX
HCT-116 = system: HCT-116
HOP-62 = system: HOP-62
IGROV-1 = system: IGROV-1
MCF7 = system: MCF7
Malme-3M = system: Malme-3M
NCI-H226 = system: NCI-H226
NCI-H23 = system: NCI-H23
OVCAR-8 = system: OVCAR-8
PC-3 = system: PC-3
SK-MEL-28 = system: SK-MEL-28
SN12C = system: SN12C
T47D = system: T47D
UACC-257 = system: UACC-257
BT-549 = system: BT-549
RXF 393 = system: RXF 393
SK-OV-3 = system: SK-OV-3
UACC-62 = system: UACC-62

Measured: GI50

COc1ccc2c(c1)c(CC(=O)O)c(C)n2C(=O)c1ccc(Cl)cc1
inactive: A549 > 100 µM | DU-145 > 100 µM | EKVX > 100 µM | HCT-116 > 100 µM | HOP-62 54.5 µM | IGROV-1 > 100 µM | MCF7 87.7 µM | Malme-3M 68.7 µM | NCI-H226 98.4 µM | NCI-H23 57 µM | OVCAR-8 77.6 µM | PC-3 39 µM | SK-MEL-28 > 100 µM | SN12C > 100 µM | T47D 52.6 µM | UACC-257 > 100 µM

O=c1cc(N2CCCC2)[nH]c(=O)n1Cc1ccccc1
inactive: A549 > 100 µM | BT-549 > 100 µM | DU-145 > 100 µM | EKVX > 100 µM | HCT-116 > 100 µM | HOP-62 > 100 µM | IGROV-1 > 100 µM | MCF7 > 100 µM | Malme-3M > 100 µM | NCI-H226 55.3 µM | NCI-H23 > 100 µM | OVCAR-8 > 100 µM | PC-3 > 100 µM | SK-MEL-28 > 100 µM | SN12C > 100 µM | UACC-257 > 100 µM

C=CC1(CC)/C(=N\O)C(CC)(CC)C(=O)N1O (stereo not given)
inactive: A549 > 100 µM | EKVX > 100 µM | HCT-116 > 100 µM | HOP-62 > 100 µM | IGROV-1 > 100 µM | Malme-3M > 100 µM | NCI-H226 > 100 µM | NCI-H23 > 100 µM | OVCAR-8 > 100 µM | RXF 393 > 100 µM | SK-MEL-28 > 100 µM | SK-OV-3 > 100 µM | SN12C > 100 µM | UACC-257 > 100 µM | UACC-62 > 100 µM

CC(=O)O[C@@H]1C=C(C)[C@H](CBr)O[C@@]2(C)CC[C@H](Br)C(C)(C)[C@H]12
inactive: A549 > 100 µM | BT-549 > 100 µM | DU-145 > 100 µM | EKVX > 100 µM | HCT-116 > 100 µM | HOP-62 > 100 µM | IGROV-1 > 100 µM | MCF7 > 100 µM | NCI-H226 > 100 µM | NCI-H23 > 100 µM | OVCAR-8 > 100 µM | PC-3 > 100 µM | RXF 393 > 100 µM | SK-MEL-28 > 100 µM | SK-OV-3 > 100 µM | SN12C > 100 µM | UACC-257 > 100 µM | UACC-62 > 100 µM

CC(=O)OCC1OC(Sc2ccccn2)C=CC1OC(C)=O (stereo not given)
inactive: A549 > 100 µM | EKVX > 100 µM | HCT-116 > 100 µM | HOP-62 > 100 µM | IGROV-1 > 100 µM | Malme-3M > 100 µM | NCI-H226 > 100 µM | NCI-H23 > 100 µM | OVCAR-8 > 100 µM | RXF 393 > 100 µM | SK-MEL-28 > 100 µM | SK-OV-3 > 100 µM | SN12C > 100 µM | UACC-257 > 100 µM | UACC-62 > 100 µM

Cc1ccc(NC(=O)/C(=N/NC(=O)C[N+](C)(C)C)c2nc3ccccc3nc2O)cc1
inactive: A549 > 100 µM | EKVX > 100 µM | HCT-116 > 100 µM | HOP-62 > 100 µM | IGROV-1 > 100 µM | Malme-3M > 100 µM | NCI-H226 > 100 µM | NCI-H23 > 100 µM | OVCAR-8 > 100 µM | RXF 393 > 100 µM | SK-MEL-28 > 100 µM | SK-OV-3 > 100 µM | SN12C > 100 µM | UACC-257 > 100 µM | UACC-62 > 100 µM

C=CC1=C(C)/C(=C/C2=NC(=C\c3[nH]c(CC4NC(=O)C(C)/C4=C\C)c(C)c3CCC(=O)O)/C(CC(=O)O)=C2C)NC1=O (stereo not given)
inactive: A549 > 100 µM | EKVX > 100 µM | HCT-116 > 100 µM | HOP-62 > 100 µM | IGROV-1 > 100 µM | Malme-3M > 100 µM | NCI-H226 > 100 µM | NCI-H23 > 100 µM | OVCAR-8 > 100 µM | RXF 393 > 100 µM | SK-MEL-28 > 100 µM | SK-OV-3 > 100 µM | SN12C > 100 µM | UACC-257 > 100 µM | UACC-62 > 100 µM

CC1CC(C)C2=NOS3=C2C1=NO3 (stereo not given)
inactive: A549 > 100 µM | DU-145 > 100 µM | EKVX 40 µM | HCT-116 > 100 µM | HOP-62 > 100 µM | IGROV-1 58.7 µM | MCF7 82.8 µM | Malme-3M 89.7 µM | NCI-H226 > 100 µM | NCI-H23 > 100 µM | OVCAR-8 > 100 µM | PC-3 > 100 µM | RXF 393 > 100 µM | SK-MEL-28 > 100 µM | SK-OV-3 > 100 µM | SN12C > 100 µM | T47D > 100 µM | UACC-257 > 100 µM | UACC-62 79.8 µM

N#Cc1c(N)oc(-c2ccc([N+](=O)[O-])cc2)c1C#N
inactive: A549 23 µM | DU-145 23.6 µM | EKVX 8.67 µM | HCT-116 29.2 µM | HOP-62 24.5 µM | IGROV-1 18.5 µM | MCF7 35 µM | Malme-3M 26.7 µM | NCI-H226 17.9 µM | NCI-H23 23.8 µM | OVCAR-8 20.5 µM | PC-3 22.5 µM | RXF 393 28.6 µM | SK-MEL-28 44.2 µM | SK-OV-3 45.2 µM | SN12C 24.2 µM | T47D 27.2 µM | UACC-257 25.2 µM | UACC-62 39.5 µM

CN(C)c1ccc(/C=N/C23CC4CC(CC(C4)C2)C3)cc1
inactive: A549 > 100 µM | EKVX > 100 µM | HCT-116 > 100 µM | HOP-62 > 100 µM | IGROV-1 > 100 µM | Malme-3M > 100 µM | NCI-H226 > 100 µM | NCI-H23 > 100 µM | OVCAR-8 > 100 µM | RXF 393 > 100 µM | SK-MEL-28 > 100 µM | SK-OV-3 > 100 µM | SN12C > 100 µM | UACC-257 > 100 µM | UACC-62 > 100 µM

CCCCc1ccc2[n+](c1)C(C(=O)OCC)=PC2 (stereo not given)
inactive: A549 > 100 µM | BT-549 > 100 µM | DU-145 > 100 µM | EKVX > 100 µM | HCT-116 > 100 µM | HOP-62 > 100 µM | IGROV-1 > 100 µM | MCF7 30.7 µM | Malme-3M > 100 µM | NCI-H23 86.1 µM | OVCAR-8 > 100 µM | PC-3 > 100 µM | RXF 393 31.9 µM | SK-MEL-28 > 100 µM | SK-OV-3 > 100 µM | SN12C > 100 µM | UACC-257 > 100 µM | UACC-62 > 100 µM

CCOP(=O)(C=C=C1CCC2[C@@H]3CCc4cc(OC)ccc4C3CC[C@]12C)OCC (stereo not given in full)
inactive: A549 4.07 µM | DU-145 14 µM | EKVX 10 µM | HCT-116 5.22 µM | HOP-62 15.3 µM | IGROV-1 11.4 µM | MCF7 6.14 µM | Malme-3M 15.6 µM | NCI-H226 5.43 µM | NCI-H23 5.73 µM | OVCAR-8 11 µM | PC-3 3.92 µM | RXF 393 1.98 µM | SK-MEL-28 10.6 µM | SK-OV-3 16.7 µM | SN12C 10.4 µM | T47D 6.22 µM | UACC-257 6.21 µM | UACC-62 3.89 µM

Cc1ccc(/N=N/C2S/C(=C(\C#N)c3nc4ccccc4[nH]3)N(c3ccccc3)C2=O)cc1 (stereo not given)
inactive: A549 88.1 µM | EKVX > 100 µM | HCT-116 90.2 µM | HOP-62 30.1 µM | IGROV-1 29.6 µM | Malme-3M > 100 µM | NCI-H226 > 100 µM | NCI-H23 86.7 µM | OVCAR-8 56.1 µM | RXF 393 28.8 µM | SK-MEL-28 > 100 µM | SK-OV-3 > 100 µM | SN12C > 100 µM | UACC-257 55 µM | UACC-62 > 100 µM

CCc1c2c(cc3c1CC1(C3)Cc3cc4c(c(C(=O)OC)c3C1)CCCC4)CCCC2 (stereo not given)
inactive: A549 29.7 µM | EKVX 28.4 µM | HCT-116 20 µM | HOP-62 > 100 µM | IGROV-1 > 100 µM | MCF7 > 100 µM | Malme-3M > 100 µM | NCI-H226 > 100 µM | NCI-H23 > 100 µM | OVCAR-8 > 100 µM | PC-3 > 100 µM | RXF 393 59.4 µM | SK-OV-3 > 100 µM | SN12C > 100 µM | T47D > 100 µM | UACC-257 > 100 µM | UACC-62 18.5 µM

N#Cc1cc([N+](=O)[O-])ccc1NC(=O)/C(=N/N)C(C(=O)c1ccc(Cl)c(Cl)c1)C1OC(=O)c2ccccc21 (stereo not given)
inactive: A549 23.7 µM | EKVX 45 µM | HCT-116 39.1 µM | HOP-62 54.6 µM | IGROV-1 > 100 µM | Malme-3M > 100 µM | NCI-H226 16.3 µM | NCI-H23 25.1 µM | OVCAR-8 28.1 µM | RXF 393 19.5 µM | SK-MEL-28 35.6 µM | SK-OV-3 > 100 µM | SN12C 90.8 µM | UACC-257 84.7 µM | UACC-62 31 µM

CC(C)SC(C)(NC(=O)C1C(C)(C)CCC1(C)C)C(=O)O (stereo not given)
inactive: A549 > 100 µM | DU-145 > 100 µM | EKVX > 100 µM | HCT-116 > 100 µM | HOP-62 > 100 µM | MCF7 > 100 µM | NCI-H226 > 100 µM | NCI-H23 > 100 µM | PC-3 > 100 µM | SK-MEL-28 > 100 µM | SK-OV-3 > 100 µM | SN12C > 100 µM | T47D > 100 µM

Source: ChEMBL document CHEMBL1201862, “PubChem BioAssay data set” (2004)
